Reference: patent US4348410A, “Cyclohexane carboxylic acid derivatives” (Nippon Chemiphar Co., Ltd., priority 1979, dated 1982)

How the values were obtained:
thrombin = thrombin (Bos taurus, UniProt P00735); experiment: Inhibitory effects on thrombin (hydrolysis of p-tosylarginine methyl ester); format: biochemical; conditions: 37° C., 10 minutes; concentration not given
Experimental: The compounds of the formula (I) have excellent inhibitory effects on protease. The inhibitory effects were determined by the following methods:
Inhibitory effects of the compounds on thrombin were determined according to the method described by M. Muramatsu et al (The Journal of Biochemistry, Volume 65 (1), 17 (1969)). In particular, inhibitory effects of the compounds on hydrolysis of p-tosylarginine methyl ester by thrombin were examined (incubated at 37° C. for 10 minutes).

chymotrypsin = chymotrypsin (Bos taurus, UniProt P00766); experiment: Inhibitory effects on chymotrypsin (hydrolysis of N-acetyl-L-tyrosine ethyl ester); format: biochemical; conditions: 37° C., 10 minutes; concentration not given
Experimental: The compounds of the formula (I) have excellent inhibitory effects on protease. The inhibitory effects were determined by the following methods: Inhibitory effects on the compounds of chymotrypsin were determined according to the method described by M. […] In particular, inhibitory effects of the compounds on hydrolysis of N-acetyl-L-tyrosine ethyl ester by chymotrypsin were examined (incubated at 37° C. for 10 minutes).

acetic acid ulcers = experiment: Acetic acid ulcers; format: in vivo, Male Sprague-Dawley strain rats; conditions: for Ulcer Grade 1 (number of rats): ulcer area 0-10 mm^2; for Ulcer Grade 2 (number of rats): ulcer area 11-20 mm^2; for Ulcer Grade 3 (number of rats): ulcer area 21-30 mm^2; for Ulcer Grade 4 (number of rats): ulcer area 31-40 mm^2; for Ulcer Grade 5 (number of rats): ulcer area >40 mm^2
Experimental: Male Sprague-Dawley strain rats, weighing about 200 g were used. Under ether anesthesia 10% acetic acid solution (0.05 ml) was injected carefully between the serous membrane and the muscle near the pylorus, and the abdomen was closed. Thereafter, the animals were maintained under conditions and administered 1 ml/100 g of each test drug dissolved or suspended in 0.5% carboxymethylcellulose solution p.o. daily×10 starting from the next day of the operation. On the 11th day, the rats were sacrificed under ether anesthesia, and the stomachs were removed. The area of the ulcer was measured and graded into 5 degrees as an ulcer index according to the following method: […]

trypsin = biological target: T1, trypsin (Bos taurus, UniProt P00760); experiment: Inhibitory effects on trypsin (hydrolysis of p-tosylarginine methyl ester); format: biochemical; conditions: 37° C., 10 minutes; concentration not given
T1 sequence (P00760 24-246): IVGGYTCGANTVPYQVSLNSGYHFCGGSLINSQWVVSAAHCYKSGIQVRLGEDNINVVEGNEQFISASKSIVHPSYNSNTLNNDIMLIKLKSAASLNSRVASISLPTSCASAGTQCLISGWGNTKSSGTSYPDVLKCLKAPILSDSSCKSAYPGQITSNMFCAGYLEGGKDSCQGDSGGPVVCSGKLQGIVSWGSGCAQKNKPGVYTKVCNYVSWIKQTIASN
Experimental: In particular, inhibitory effects of the compounds on hydrolysis of p-tosylarginine methyl ester by trypsin were examined (incubated at 37° C. for 10 minutes).

urokinase = urokinase (Homo sapiens, UniProt P00749); experiment: Inhibitory effects on urokinase (hydrolysis of N-acetylglycyl lysine methyl ester); format: biochemical; conditions: 37° C., 10 minutes; concentration not given
Experimental: The compounds of the formula (I) have excellent inhibitory effects on protease. The inhibitory effects were determined by the following methods: Inhibitory effects of the compounds on urokinase were determined according to the method described by A. J. Joeson et al (Throm. […]. 21, 259-272 (1969)). In particular, inhibitory effects of the compounds on hydrolysis of N-acetylglycyl lysine methyl ester by urokinase were determined (incubated at 37° C. for 10 minutes).

Shay ulcers = Shay ulcers (pylorus ligation); format: in vivo, Male Sprague-Dawley strain rats; conditions: 200 mg/kg i.p.
Experimental: The rats were sacrificed 18 hours later by an overdose of ether and the stomach removed. The stomach was incised along the greater curvature and the surface area of each lesion in forestomach was measured by the naked eye. […] 4=many ulcers of marked size 5=perforated ulcer The test drugs were given intraperitoneally, immediately after pylorus ligation.

**Q.** Which “Inhibition (%) Thrombin” value (thrombin) does the source give for COc1cc(C=O)ccc1OC(=O)[C@H]1CC[C@H](CNC(=N)N)CC1 [Compound 2] here?
**A.** 51%

**Q.** And the “Inhibition (%) Chymotrypsin” value (chymotrypsin)?
**A.** 100%

**Q.** And the “Ulcer Grade 1 (number of rats)” value (acetic acid ulcers; 125 mg/kg p.o. daily×10)?
**A.** 9

**Q.** What about the “Ulcer Grade 2 (number of rats)” value (acetic acid ulcers; 125 mg/kg p.o. daily×10) of the same compound?
**A.** 1

**Q.** What about the “Ulcer Grade 3 (number of rats)” value (acetic acid ulcers; 125 mg/kg p.o. daily×10) of the same compound?
**A.** 2

**Q.** What about the “Ulcer Grade 4 (number of rats)” value (acetic acid ulcers; 125 mg/kg p.o. daily×10) of the same compound?
**A.** 2

**Q.** What about the “Ulcer Grade 5 (number of rats)” value (acetic acid ulcers; 125 mg/kg p.o. daily×10) of the same compound?
**A.** 1

**Q.** And the “Ulcer Grade 1 (number of rats)” value (acetic acid ulcers; 250 mg/kg p.o. daily×10)?
**A.** 14

**Q.** And the “Ulcer Grade 2 (number of rats)” value (acetic acid ulcers; 250 mg/kg p.o. daily×10)?
**A.** 0

**Q.** And the “Ulcer Grade 3 (number of rats)” value (acetic acid ulcers; 250 mg/kg p.o. daily×10)?
**A.** 3

**Q.** And the “Ulcer Grade 4 (number of rats)” value (acetic acid ulcers; 250 mg/kg p.o. daily×10)?
**A.** 1

**Q.** What about the “Ulcer Grade 5 (number of rats)” value (acetic acid ulcers; 250 mg/kg p.o. daily×10) of the same compound?
**A.** 0

**Q.** What about the “Ulcer Grade 1 (number of rats)” value (acetic acid ulcers; 500 mg/kg p.o. daily×10) of the same compound?
**A.** 12

**Q.** What about the “Ulcer Grade 2 (number of rats)” value (acetic acid ulcers; 500 mg/kg p.o. daily×10) of the same compound?
**A.** 3

**Q.** What about the “Ulcer Grade 3 (number of rats)” value (acetic acid ulcers; 500 mg/kg p.o. daily×10) of the same compound?
**A.** 2

**Q.** And the “Ulcer Grade 4 (number of rats)” value (acetic acid ulcers; 500 mg/kg p.o. daily×10)?
**A.** 0

**Q.** What about the “Ulcer Grade 5 (number of rats)” value (acetic acid ulcers; 500 mg/kg p.o. daily×10) of the same compound?
**A.** 1

**Q.** What about the “Inhibition (%) Trypsin” value (trypsin) of the same compound?
**A.** 61%

**Q.** And the “Inhibition (%) Urokinase” value (urokinase)?
**A.** 72%

**Q.** CCOc1ccccc1OC(=O)[C@H]1CC[C@H](CNC(=N)N)CC1 [Compound 4] was tested. Which “Inhibition (%) Thrombin” value (thrombin) did it give?
**A.** 35%

**Q.** What about the “Inhibition (%) Chymotrypsin” value (chymotrypsin) of the same compound?
**A.** 28%

**Q.** And the “Inhibition (%) Trypsin” value (trypsin)?
**A.** 22%

**Q.** And the “Inhibition (%) Urokinase” value (urokinase)?
**A.** 84%

**Q.** What does the source list for N=C(N)NC[C@H]1CC[C@H](C(=O)Oc2ccccc2C(=O)Oc2ccccc2)CC1 [Compound 5]?
**A.** Inhibition (%) Thrombin (thrombin): 34%; Inhibition (%) Chymotrypsin (chymotrypsin): 90%; Inhibition (%) Trypsin (trypsin): 38%; Inhibition (%) Urokinase (urokinase): 35%

**Q.** CCOC(=O)c1ccc(OC(=O)[C@H]2CC[C@H](CNC(=N)N)CC2)cc1 [Compound 6] was tested. Which “Inhibition (%) Thrombin” value (thrombin) did it give?
**A.** 39%

**Q.** And the “Inhibition (%) Chymotrypsin” value (chymotrypsin)?
**A.** 70%

**Q.** And the “Inhibition (%) Trypsin” value (trypsin)?
**A.** 25%

**Q.** And the “Inhibition (%) Urokinase” value (urokinase)?
**A.** 50%

**Q.** Which “Inhibition (%) Thrombin” value (thrombin) does the source give for Cl.N=C(N)NC[C@H]1CC[C@H](C(=O)Oc2cccnc2)CC1 [Compound 7, 3pyridyl trans4-guanidinomethylcyclohexanecarboxylate hydrochloride] here?
**A.** 32%

**Q.** And the “Inhibition (%) Chymotrypsin” value (chymotrypsin)?
**A.** 70%

**Q.** And the “Inhibition (%) Trypsin” value (trypsin)?
**A.** 23%

**Q.** And the “Inhibition (%) Urokinase” value (urokinase)?
**A.** 67%

**Q.** Which “Inhibition (%) Thrombin” value (thrombin) does the source give for CCOC(=O)CCc1ccc(OC(=O)[C@H]2CC[C@H](CNC(=N)N)CC2)cc1 [Compound 8] here?
**A.** 43%

**Q.** And the “Inhibition (%) Chymotrypsin” value (chymotrypsin)?
**A.** 20%

**Q.** And the “Ulcer Grade 1 (number of rats)” value (acetic acid ulcers; 300 mg/kg p.o. daily×10)?
**A.** 4

**Q.** And the “Ulcer Grade 2 (number of rats)” value (acetic acid ulcers; 300 mg/kg p.o. daily×10)?
**A.** 3

**Q.** What about the “Ulcer Grade 3 (number of rats)” value (acetic acid ulcers; 300 mg/kg p.o. daily×10) of the same compound?
**A.** 1

**Q.** And the “Ulcer Grade 4 (number of rats)” value (acetic acid ulcers; 300 mg/kg p.o. daily×10)?
**A.** 0

**Q.** What about the “Ulcer Grade 5 (number of rats)” value (acetic acid ulcers; 300 mg/kg p.o. daily×10) of the same compound?
**A.** 0

**Q.** What about the “Inhibition (%) Trypsin” value (trypsin) of the same compound?
**A.** 51%

**Q.** And the “Inhibition (%) Urokinase” value (urokinase)?
**A.** 55%

**Q.** What about the “Ulcer Grade 0 (number of rats)” value (Shay ulcers; 0=no lesion) of the same compound?
**A.** 4

**Q.** And the “Ulcer Grade 1 (number of rats)” value (Shay ulcers; 1=hemorrhagic suffusion)?
**A.** 2

**Q.** And the “Ulcer Grade 2 (number of rats)” value (Shay ulcers; 2=1-5 small ulcers (<3 mm))?
**A.** 2

**Q.** And the “Ulcer Grade 3 (number of rats)” value (Shay ulcers; 3=many small ulcers (more than 5) or 1 ulcer of marked size)?
**A.** 1

**Q.** What about the “Ulcer Grade 4 (number of rats)” value (Shay ulcers; 4=many ulcers of marked size) of the same compound?
**A.** 1

**Q.** What about the “Ulcer Grade 5 (number of rats)” value (Shay ulcers; 5=perforated ulcer) of the same compound?
**A.** 0

**Q.** How did the “Inhibition (%) Thrombin” value (thrombin) turn out when CCOC(=O)c1ccccc1OC(=O)[C@H]1CC[C@H](CNC(=N)N)CC1 [Compound 9] was run?
**A.** 29%

**Q.** And the “Inhibition (%) Chymotrypsin” value (chymotrypsin)?
**A.** 60%

**Q.** What about the “Ulcer Grade 1 (number of rats)” value (acetic acid ulcers; 125 mg/kg p.o. daily×10) of the same compound?
**A.** 11

**Q.** What about the “Ulcer Grade 2 (number of rats)” value (acetic acid ulcers; 125 mg/kg p.o. daily×10) of the same compound?
**A.** 3

**Q.** And the “Ulcer Grade 3 (number of rats)” value (acetic acid ulcers; 125 mg/kg p.o. daily×10)?
**A.** 1

**Q.** What about the “Ulcer Grade 4 (number of rats)” value (acetic acid ulcers; 125 mg/kg p.o. daily×10) of the same compound?
**A.** 1

**Q.** And the “Ulcer Grade 5 (number of rats)” value (acetic acid ulcers; 125 mg/kg p.o. daily×10)?
**A.** 1

**Q.** And the “Ulcer Grade 1 (number of rats)” value (acetic acid ulcers; 250 mg/kg p.o. daily×10)?
**A.** 11

**Q.** And the “Ulcer Grade 2 (number of rats)” value (acetic acid ulcers; 250 mg/kg p.o. daily×10)?
**A.** 2

**Q.** And the “Ulcer Grade 3 (number of rats)” value (acetic acid ulcers; 250 mg/kg p.o. daily×10)?
**A.** 1

**Q.** And the “Ulcer Grade 4 (number of rats)” value (acetic acid ulcers; 250 mg/kg p.o. daily×10)?
**A.** 0

**Q.** What about the “Ulcer Grade 5 (number of rats)” value (acetic acid ulcers; 250 mg/kg p.o. daily×10) of the same compound?
**A.** 0

**Q.** And the “Ulcer Grade 1 (number of rats)” value (acetic acid ulcers; 500 mg/kg p.o. daily×10)?
**A.** 12

**Q.** And the “Ulcer Grade 2 (number of rats)” value (acetic acid ulcers; 500 mg/kg p.o. daily×10)?
**A.** 2

**Q.** What about the “Ulcer Grade 3 (number of rats)” value (acetic acid ulcers; 500 mg/kg p.o. daily×10) of the same compound?
**A.** 1

**Q.** And the “Ulcer Grade 4 (number of rats)” value (acetic acid ulcers; 500 mg/kg p.o. daily×10)?
**A.** 0

**Q.** What about the “Ulcer Grade 5 (number of rats)” value (acetic acid ulcers; 500 mg/kg p.o. daily×10) of the same compound?
**A.** 0

**Q.** And the “Inhibition (%) Trypsin” value (trypsin)?
**A.** 28%

**Q.** What about the “Inhibition (%) Urokinase” value (urokinase) of the same compound?
**A.** 50%
